ChEMBL document CHEMBL4765282, “Design, synthesis and biological evaluation of 1H-pyrazolo [3,4-d]pyrimidine derivatives as PAK1 inhibitors that trigger apoptosis, ER stress and anti-migration effect in MDA-MB-231 cells” (Eur J Med Chem, 2020)
Activity calls are given as the source filed them. No cut-off for these calls is given here.

Experiments:
[1] = target: Serine/threonine-protein kinase PAK 1 (Homo sapiens, UniProt Q13153); assay: Inhibition of PAK1 (unknown origin) […] measured after 40 mins by ADP-glo kinase assay
[2] = system: MDA-MB-231; assay: Down regulation of PAK1 expression in human MDA-MB-231 cells at 5 uM measured after 24 hrs by immunofluorescence analysis; format: functional, cell-based

Chain of Serine/threonine-protein kinase PAK 1 (Q13153 whole entry): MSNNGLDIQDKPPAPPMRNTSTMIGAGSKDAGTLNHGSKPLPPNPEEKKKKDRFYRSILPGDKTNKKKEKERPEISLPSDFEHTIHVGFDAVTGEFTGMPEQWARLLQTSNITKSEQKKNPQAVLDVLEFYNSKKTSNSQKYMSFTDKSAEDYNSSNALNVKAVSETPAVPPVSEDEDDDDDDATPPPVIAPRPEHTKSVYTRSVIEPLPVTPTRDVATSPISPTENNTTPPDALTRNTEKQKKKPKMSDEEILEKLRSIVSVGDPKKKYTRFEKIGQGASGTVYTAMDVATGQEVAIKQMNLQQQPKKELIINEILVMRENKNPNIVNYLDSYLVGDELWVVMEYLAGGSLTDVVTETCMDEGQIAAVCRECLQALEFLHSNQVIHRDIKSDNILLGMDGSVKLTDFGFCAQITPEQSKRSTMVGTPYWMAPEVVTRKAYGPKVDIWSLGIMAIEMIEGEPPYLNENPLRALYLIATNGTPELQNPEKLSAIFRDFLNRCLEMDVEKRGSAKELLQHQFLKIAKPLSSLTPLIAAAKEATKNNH

Row | Compound | IC50 [1] [µM] | Activity [2]
1 | O=C(c1ccc(C(F)(F)F)cc1)N1CCC(Nc2ncnc3[nH]ncc23)CC1 | > 50 | 
2 | O=C(Nc1ccc(F)cc1F)N1CCC(Nc2ncnc3[nH]ncc23)CC1 | 5.17 | 
3 | O=C(Nc1ccc(C(F)(F)F)cc1)N1CCC(Nc2ncnc3[nH]ncc23)CC1 | 15.8 | 
4 | O=C(Nc1ccc(F)cc1F)NC1CCN(c2ncnc3[nH]ncc23)CC1 | 1.14 | 
5 | Cc1ccc(C(=O)NC2CCN(c3ncnc4[nH]ncc34)CC2)cc1 | 5.61 | 
6 | Cc1ccccc1C(=O)NC1CCN(c2ncnc3[nH]ncc23)CC1 | 6.26 | 
7 | O=C(Nc1ccc(Cl)cc1Cl)N1CCC(Nc2ncnc3[nH]ncc23)CC1 | 5.46 | 
8 | COc1ccc(NC(=S)N2CCC(Nc3ncnc4[nH]ncc34)CC2)cc1 | 15.1 | 
9 | Cc1cccc(C)c1NC(=O)N1CCC(Nc2ncnc3[nH]ncc23)CC1 | 6.27 | 
10 | O=C(c1ccc(Br)cc1)N1CCC(Nc2ncnc3[nH]ncc23)CC1 | 29.2 | 
11 | Cc1ccc(NC(=S)N2CCC(Nc3ncnc4[nH]ncc34)CC2)cc1 | 19.6 | 
12 | O=C(NC1CCN(c2ncnc3[nH]ncc23)CC1)c1cccc(Cl)c1Cl | 4.17 | 
13 | COc1ccc(NC(=O)NC2CCN(c3ncnc4[nH]ncc34)CC2)cc1 | 6.37 | 
14 | O=C(Nc1ccccc1Cl)N1CCC(Nc2ncnc3[nH]ncc23)CC1 | 5.24 | 
15 | O=C(Nc1cccc(Cl)c1)NC1CCN(c2ncnc3[nH]ncc23)CC1 | 1.24 | 
16 | COc1ccc(C(=O)NC2CCN(c3ncnc4[nH]ncc34)CC2)cc1 | 8.82 | 
17 | O=C(NC1CCN(c2ncnc3[nH]ncc23)CC1)c1ccc(C(F)(F)F)cc1 | 5.74 | 
18 | O=C(c1cccc(C(F)(F)F)c1)N1CCC(Nc2ncnc3[nH]ncc23)CC1 | > 50 | 
19 | FC(F)(F)c1cc(NC(=S)N2CCC(Nc3ncnc4[nH]ncc34)CC2)cc(C(F)(F)F)c1 | 8.71 | 
20 | O=C(Nc1ccccc1Cl)NC1CCN(c2ncnc3[nH]ncc23)CC1 | 0.56 | 
21 | O=C(c1ccc(F)cc1)N1CCC(Nc2ncnc3[nH]ncc23)CC1 | 7.82 | 
22 | O=C(Nc1cc(C(F)(F)F)cc(C(F)(F)F)c1)N1CCC(Nc2ncnc3[nH]ncc23)CC1 | 9.32 | 
23 | O=C(Nc1ccc(Br)cc1)NC1CCN(c2ncnc3[nH]ncc23)CC1 | 4.03 | 
24 | O=C(Nc1ccc(Cl)c(Cl)c1)N1CCC(Nc2ncnc3[nH]ncc23)CC1 | 10.8 | 
25 | O=C(Nc1cccc2ccccc12)N1CCC(Nc2ncnc3[nH]ncc23)CC1 | > 50 | 

Row | Compound | IC50 [1] [µM] | Activity [2]
26 | O=C(Nc1cccc2ccccc12)NC1CCN(c2ncnc3[nH]ncc23)CC1 | 11.1 | 
27 | O=C(Nc1ccc(C(F)(F)F)cc1)NC1CCN(c2ncnc3[nH]ncc23)CC1 | 7.15 | 
28 | O=C(Nc1cccc(Cl)c1)N1CCC(Nc2ncnc3[nH]ncc23)CC1 | 7.18 | 
29 | S=C(Nc1ccccc1Cl)N1CCC(Nc2ncnc3[nH]ncc23)CC1 | 6.67 | 
30 | O=C(c1ccc(Cl)cc1)N1CCC(Nc2ncnc3[nH]ncc23)CC1 | 9.44 | 
31 | Cc1cc(C)c(C(=O)N2CCC(Nc3ncnc4[nH]ncc34)CC2)c(C)c1 | 31.1 | 
32 | Cc1ccc(NC(=O)N2CCC(Nc3ncnc4[nH]ncc34)CC2)cc1 | 17.4 | 
33 | O=C(Nc1ccc(Br)cc1)N1CCC(Nc2ncnc3[nH]ncc23)CC1 | 17.9 | 
34 | CCn1c(=O)c(-c2ccc(-c3cncs3)cc2Cl)cc2cnc(Nc3ccc(N4CCN(C)CC4)cc3)nc21 |  | Active
35 | Cc1cccc(C)c1NC(=O)NC1CCN(c2ncnc3[nH]ncc23)CC1 | 2.16 | 
36 | Cc1cc(C)c(C(=O)NC2CCN(c3ncnc4[nH]ncc34)CC2)c(C)c1 | 6.77 | 
37 | Cc1ccccc1C(=O)N1CCC(Nc2ncnc3[nH]ncc23)CC1 | 33.2 | 
38 | COc1ccc(NC(=O)N2CCC(Nc3ncnc4[nH]ncc34)CC2)cc1 | 13.8 | 
39 | O=C(NC1CCN(c2ncnc3[nH]ncc23)CC1)c1ccc(Br)cc1 | 16.4 | 
40 | Cc1cccc(C)c1NC(=S)N1CCC(Nc2ncnc3[nH]ncc23)CC1 | 7.36 | 
41 | O=C(c1cccc(Cl)c1Cl)N1CCC(Nc2ncnc3[nH]ncc23)CC1 | 6.77 | 
42 | Cc1ccc(NC(=O)NC2CCN(c3ncnc4[nH]ncc34)CC2)cc1 | 4.71 | 
43 | S=C(Nc1cccc(Cl)c1)N1CCC(Nc2ncnc3[nH]ncc23)CC1 | 7.89 | 
44 | S=C(Nc1cccc2ccccc12)N1CCC(Nc2ncnc3[nH]ncc23)CC1 | > 50 | 
45 | O=C(NC1CCN(c2ncnc3[nH]ncc23)CC1)c1ccccc1Cl | 5.24 | 
46 | Cc1ccc(C(=O)N2CCC(Nc3ncnc4[nH]ncc34)CC2)cc1 | 39.5 | 
47 | O=C(Nc1ccc(Cl)c(Cl)c1)NC1CCN(c2ncnc3[nH]ncc23)CC1 | 2.29 | 
48 | O=C(NC1CCN(c2ncnc3[nH]ncc23)CC1)c1ccc(F)cc1 | 4.54 | 
49 | O=C(NC1CCN(c2ncnc3[nH]ncc23)CC1)c1cccc(C(F)(F)F)c1 | 2.51 | 
50 | O=C(c1ccccc1Cl)N1CCC(Nc2ncnc3[nH]ncc23)CC1 | 6.84 | 
